Columns and labels:
[1] = biological target: T1, PI3K-α (PIK3CA) H1047R mutant, p110α/p85α complex (Homo sapiens, UniProt P42336, H1047R); experiment: PI3K-alpha kinase (PIK3CA) biochemical activity, ADP-Glo, H1047R mutant; details: Soy PI lipid substrate
T1 construct: Recombinant, catalytically active human full length PIK3KA Wild-type and H1047R mutant; 6×His (N); purchased EMD Millipore Sigma 14-792M
Outline: (§1)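 ADP formation measured by ADP-Glo luminescence after reaction at 27 °C to about 10% ATP turnover, using 20 uM ATP, 50 uM PIP2diC8 or soy PI lipid, HEPES pH 7.4 with MgCl2. Enzyme (1-5 nM WT or H1047R p110α/p85α) and compound preincubated 1 h first; 10-point 1:3 curves fitted four-parameter for IC50.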

[2] = biological target: T2, PI3K-α (PIK3CA) wild-type (WT), p110α/p85α complex (Homo sapiens, UniProt P42336); experiment: PI3K-alpha kinase (PIK3CA) biochemical activity, ADP-Glo, wild-type; details: Soy PI lipid substrate
T2 construct: Recombinant, catalytically active human full length PIK3KA Wild-type and H1047R mutant; 6×His (N); purchased EMD Millipore Sigma 14-602M
Outline: as §1

[3] = biological target: PI3K-α (PIK3CA) in MDA-MB-453 cells (Homo sapiens, UniProt P42336); experiment: PI3K-alpha kinase (PIK3CA) in vitro cell based assay, MDA-MB-453 cells, SureFire Ultra AlphaLisa; details: read-out: PI3K-α (PIK3CA) in vitro cell based assay IC50
Experimental: PI3K-Alpha Kinase (PIK3CA) Activity In Vitro Cell Based Assay and Determining IC50 Values for Inhibitors
The MDA-MB-453 (ATCC-HTB-131) cell line was obtained from the American Type Culture Collection (Manassas, VA). Cells were maintained in Dulbecco's Modified Eagle Media (DMEM, Gibco 11965-092) supplemented with 10% Fetal Bovine Serum, heat inactivated (FBS HI, Gibco 10082-147), 1× non-essential amino acids (NEAA, Gibco 11140-050), and 1 mM sodium pyruvate (Gibco 11360-070). Cultures were maintained in a humidified incubator at 37° C. under 5% CO2/95% air.
For compound testing in 0% FBS, MDA-MB-453 cells were seeded at a density of 1.5×10^4 cells per well in white 384-well plates in 20 μl of Minimum Essential Media (MEM) assay media with 1×NEAA, 1 mM sodium pyruvate, and 1 μg/mL human insulin (Sigma I9278). Compounds dissolved in 10 mM stock solutions in DMSO were serially diluted 1:3 in DMSO to generate a 10-point dilution series and plated using an acoustic liquid handler system (Echo 550 Series Liquid Handler, Labcyte). A 5× intermediate compound dilution plate in MEM with 1×NEAA and 1 mM sodium pyruvate (150 μM starting compound concentration in 1.5% DMSO) was then prepared. Five μl of the intermediate serially diluted compounds were added to the cell plate to final concentrations ranging from […] in 0.3% DMSO. 0.3% DMSO alone was used to establish the maximum (MAX) signal and GDC-0032 at a final concentration of 1 μM was used as a reference compound for the minimum (MIN) signal. After 3 hours treatment, the medium was removed, and the cells lysed in 10 μL of 1× SureFire Lysis buffer with shaking for 10 minutes at room temperature. The Acceptor Mix (Reaction Buffer 1+Reaction Buffer 2+Activation Buffer+SureFire Ultra Acceptor Beads) was prepared by diluting Activation buffer 25-fold in combined Reaction Buffer 1 and Reaction Buffer 2. The Acceptor beads were diluted 50-fold in the combined Reaction Buffers. Five μL of Acceptor Mix was added to each well, the plate was sealed and covered with foil and incubated for 1 hour at room temperature. The Donor Mix (dilution buffer+SureFire Ultra Donor Beads) was prepared by diluting Donor Beads 50-fold in dilution buffer. Five μL of the Donor Mix was added to each well and the plate sealed and covered with foil and incubated for 1 hour at room temperature in the dark. The plates were read on a Neo2 plate reader instrument from Biotek using standard AlphaLisa settings. Compounds were tested in duplicate and the average % inhibition at each compound concentration was used to generate a single dose response curve. The data were processed using the Genedata-Screener tool. Relative IC50 values were determined using luminescence units by calculating percent inhibition with respect to the in-plate “MIN” (GDC-0032 reference control) and “MAX” (DMSO) controls. The data was analyzed using a 4-parameter nonlinear logistic equation (four-parameter logistic concentration-response curve): Y=bottom+[(top−bottom)/1+(X/IC50)slope] where Y=% inhibition, X=concentration of inhibitor, bottom=minimum value of y attained by curve-fit, top=maximum value of y attained by curve-fit and slope=steepness of curve at the IC50. % Inhibition=[(signal at X−median Min)/(median Max−median Min)]×100 IC50: concentration of compound that reduces a given response (ligand binding, enzyme response) by 50%. Relative IC50: concentration giving half the compound's maximum response.

PI3K-α (PIK3CA) in MDA-MB-453 cells, sequence (P27986 2-724): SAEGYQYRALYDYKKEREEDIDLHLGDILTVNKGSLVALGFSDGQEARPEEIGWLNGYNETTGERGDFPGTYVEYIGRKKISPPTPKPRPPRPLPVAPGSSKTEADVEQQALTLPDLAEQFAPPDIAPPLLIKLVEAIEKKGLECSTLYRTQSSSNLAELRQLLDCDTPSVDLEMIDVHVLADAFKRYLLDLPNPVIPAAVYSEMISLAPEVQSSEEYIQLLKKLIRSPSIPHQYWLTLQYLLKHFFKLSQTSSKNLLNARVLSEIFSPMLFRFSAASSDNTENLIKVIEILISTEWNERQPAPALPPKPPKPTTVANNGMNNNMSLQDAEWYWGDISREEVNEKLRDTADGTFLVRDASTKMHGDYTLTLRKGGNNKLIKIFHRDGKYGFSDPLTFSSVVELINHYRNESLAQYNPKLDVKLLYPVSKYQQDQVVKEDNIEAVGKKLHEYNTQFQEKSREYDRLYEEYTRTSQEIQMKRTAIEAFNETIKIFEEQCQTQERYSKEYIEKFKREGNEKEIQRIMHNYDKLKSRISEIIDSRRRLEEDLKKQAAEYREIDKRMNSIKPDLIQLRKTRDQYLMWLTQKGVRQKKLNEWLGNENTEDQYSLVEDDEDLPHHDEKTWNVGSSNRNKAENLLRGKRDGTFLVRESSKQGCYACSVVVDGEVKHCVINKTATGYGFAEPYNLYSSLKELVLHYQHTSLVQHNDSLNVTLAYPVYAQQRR
PI3K-α (PIK3CA) in MDA-MB-453 cells, sequence (P42336 whole entry): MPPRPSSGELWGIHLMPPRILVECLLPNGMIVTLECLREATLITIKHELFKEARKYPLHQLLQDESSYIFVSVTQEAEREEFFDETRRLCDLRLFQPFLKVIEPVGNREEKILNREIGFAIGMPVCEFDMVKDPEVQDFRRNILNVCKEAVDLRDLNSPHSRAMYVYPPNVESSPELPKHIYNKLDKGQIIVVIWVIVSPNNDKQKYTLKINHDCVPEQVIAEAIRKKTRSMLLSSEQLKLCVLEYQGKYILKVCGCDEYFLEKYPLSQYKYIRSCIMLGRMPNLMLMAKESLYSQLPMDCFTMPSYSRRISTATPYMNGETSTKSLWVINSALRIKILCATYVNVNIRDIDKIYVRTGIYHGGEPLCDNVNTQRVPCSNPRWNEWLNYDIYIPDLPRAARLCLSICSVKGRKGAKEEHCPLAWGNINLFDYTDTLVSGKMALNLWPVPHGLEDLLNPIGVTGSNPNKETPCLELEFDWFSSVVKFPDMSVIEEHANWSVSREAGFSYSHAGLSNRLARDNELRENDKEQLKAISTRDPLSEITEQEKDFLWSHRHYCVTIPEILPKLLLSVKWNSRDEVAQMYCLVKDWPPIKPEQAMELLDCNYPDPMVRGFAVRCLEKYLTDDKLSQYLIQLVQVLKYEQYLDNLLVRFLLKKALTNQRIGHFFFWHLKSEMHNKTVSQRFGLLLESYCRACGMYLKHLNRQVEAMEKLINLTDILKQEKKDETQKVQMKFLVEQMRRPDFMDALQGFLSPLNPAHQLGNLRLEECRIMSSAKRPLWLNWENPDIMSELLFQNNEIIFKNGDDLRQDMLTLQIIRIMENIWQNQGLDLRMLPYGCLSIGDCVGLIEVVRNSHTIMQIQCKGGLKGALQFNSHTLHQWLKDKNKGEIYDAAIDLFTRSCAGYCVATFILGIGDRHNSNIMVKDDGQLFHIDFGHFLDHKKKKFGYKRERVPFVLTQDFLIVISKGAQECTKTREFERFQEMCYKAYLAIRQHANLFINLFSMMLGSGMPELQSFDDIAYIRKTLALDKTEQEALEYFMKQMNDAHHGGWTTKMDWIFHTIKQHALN
T1 sequence (P42336 whole entry H1047R): as the sequence (P42336 whole entry) above, with H1047R counted along it
T1 sequence (P27986 whole entry partner): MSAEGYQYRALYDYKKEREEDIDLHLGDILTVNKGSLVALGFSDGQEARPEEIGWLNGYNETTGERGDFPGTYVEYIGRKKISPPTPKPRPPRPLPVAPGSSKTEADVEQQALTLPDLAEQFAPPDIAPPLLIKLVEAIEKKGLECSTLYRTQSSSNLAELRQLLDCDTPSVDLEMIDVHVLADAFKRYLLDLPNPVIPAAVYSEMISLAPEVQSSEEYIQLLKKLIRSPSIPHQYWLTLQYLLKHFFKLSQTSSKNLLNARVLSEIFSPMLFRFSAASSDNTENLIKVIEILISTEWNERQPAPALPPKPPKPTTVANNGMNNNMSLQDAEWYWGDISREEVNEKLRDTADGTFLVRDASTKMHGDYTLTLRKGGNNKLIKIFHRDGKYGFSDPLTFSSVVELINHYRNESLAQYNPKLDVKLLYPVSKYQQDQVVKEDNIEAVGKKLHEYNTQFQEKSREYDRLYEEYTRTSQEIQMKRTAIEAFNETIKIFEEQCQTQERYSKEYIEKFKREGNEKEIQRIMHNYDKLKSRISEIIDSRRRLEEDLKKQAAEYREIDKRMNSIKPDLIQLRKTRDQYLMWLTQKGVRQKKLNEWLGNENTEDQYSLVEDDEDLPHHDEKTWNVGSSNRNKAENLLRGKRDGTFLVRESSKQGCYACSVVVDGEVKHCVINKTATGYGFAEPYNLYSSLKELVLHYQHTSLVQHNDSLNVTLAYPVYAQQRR

Structure (SMILES)	IC50 [1]	IC50 [2]	IC50 [3]
Cc1cc([C@@H](C)Nc2cccnc2C(=O)O)c2oc(-c3nn(C)c4ccccc34)cc(=O)c2c1 [Example 232, 3-[[(1R)-1-[6-Methyl-2-(1-methylindazol-3-yl)-4-oxo-chromen-8-yl]ethyl]amino]pyridine-2-carboxylic acid]	0.5 to 1 µM	> 10 µM	0.1 to 0.5 µM
Cc1cc([C@@H](C)Nc2ccccc2C(=O)O)c2oc(-c3ccc4c(cnn4Cc4ccccc4)c3)c(C)c(=O)c2c1 [Example 211, 2-[[(1R)-1-[2-(1-Benzylindazol-5-yl)-3,6-dimethyl-4-oxo-chromen-8-yl]ethyl]amino]benzoic acid]	< 0.5 µM	0.5 to 1 µM	0.05 to 0.1 µM
C[C@@H](Nc1ccc(Cl)nc1C(=O)O)c1cc(C(F)(F)F)cc2c(=O)cc(-c3ccc4nn(C)cc4c3)oc12 [Example 169, 6-Chloro-3-[[(1R)-1-[2-(2-methylindazol-5-yl)-4-oxo-6-(trifluoromethyl)chromen-8-yl]ethyl]amino]pyridine-2-carboxylic acid]	< 0.5 µM	0.5 to 1 µM	0.05 to 0.1 µM
Cc1cc(C(C)Nc2ccc(Cl)nc2C(=O)O)c2oc(-c3nn(C)c4ccccc34)c(C)c(=O)c2c1 (single isomer, unassigned) [Example 170, 6-Chloro-3-[1-[3,6-dimethyl-2-(1-methylindazol-3-yl)-4-oxo-chromen-8-yl]ethylamino]pyridine-2-carboxylic acid]	< 0.5 µM	< 0.5 µM	< 0.05 µM
COc1ccc2cc(-c3cc(=O)c4cc(C)cc([C@@H](C)Nc5ccccc5C(=O)O)c4o3)ccc2n1 [Example 249, 2-[[(1R)-1-[2-(2-Methoxy-6-quinolyl)-6-methyl-4-oxo-chromen-8-yl]ethyl]amino]benzoic acid]	< 0.5 µM	1 to 5 µM	0.05 to 0.1 µM
Cc1cc(C(C)Nc2cccc(F)c2C(=O)O)c2oc(-c3ccc4nn(C)cc4c3)cc(=O)c2c1 (single isomer, unassigned) [Example 171, 2-Fluoro-6-[1-[6-methyl-2-(2-methylindazol-5-yl)-4-oxo-chromen-8-yl]ethylamino]benzoic acid]	1 to 5 µM	1 to 5 µM	> 0.5 µM
Cc1cc(C(C)Nc2ccccc2C(=O)O)c2oc(-c3ccc4c(C)nn(C)c4c3)cc(=O)c2c1 (single isomer, unassigned) [Example 27, 2-[1-[2-(1,3-Dimethylindazol-6-yl)-6-methyl-4-oxo-chromen-8-yl]ethylamino]benzoic acid]	< 0.5 µM	0.5 to 1 µM	< 0.05 µM
Cc1cc(C(C)Nc2ccccc2C(=O)O)c2oc(-c3cnn4cccnc34)cc(=O)c2c1 (single isomer, unassigned) [Example 34, 2-[1-(6-Methyl-4-oxo-2-pyrazolo[1,5-a]pyrimidin-3-yl-chromen-8-yl)ethylamino]benzoic acid]	< 0.5 µM	1 to 5 µM	0.05 to 0.1 µM
Cc1cc(C(C)Nc2ccccc2C(=O)O)c2oc(-c3cc4cnccc4o3)cc(=O)c2c1 (single isomer, unassigned) [Example 22, 2-[1-(2-Furo[3,2-c]pyridin-2-yl-6-methyl-4-oxo-chromen-8-yl)ethylamino]benzoic acid]	< 0.5 µM	0.5 to 1 µM	< 0.05 µM
Cc1cc([C@@H](C)Nc2ccc(C(F)(F)F)nc2C(=O)O)c2oc(-c3ccc4nc(C)sc4n3)c(C)c(=O)c2c1 [Example 233, 3-[[(1R)-1-[3,6-Dimethyl-2-(2-methylthiazolo[5,4-b]pyridin-5-yl)-4-oxo-chromen-8-yl]ethyl]amino]-6-(trifluoromethyl)pyridine-2-carboxylic acid]	< 0.5 µM	1 to 5 µM	0.1 to 0.5 µM
Cc1cc(C(C)Nc2ccccc2C(=O)O)c2oc(-c3cnc4cc[nH]c4c3)cc(=O)c2c1 (single isomer, unassigned) [Example 71, 2-[1-[6-Methyl-4-oxo-2-(1H-pyrrolo[3,2-b]pyridin-6-yl)chromen-8-yl]ethylamino]benzoic acid]	< 0.5 µM	1 to 5 µM	0.1 to 0.5 µM

— patent US11878970B2, “Allosteric chromenone inhibitors of phosphoinositide 3-kinase (PI3K) for the treatment of disease” (Petra Pharma Corporation, priority 2021, dated 2024)
